Literature values in patent US20080241240A1, “COMBINED PHARMACEUTICAL FORMULATION WITH CONTROLLED-RELEASE COMPRISING DIHYDROPYRIDINE CALCIUM CHANNEL BLOCKERS AND HMG-COA REDUCTASE INHIBITORS” (HANALL Pharmaceutical Co., Ltd., priority 2006, published 2008).

Settings: orally administered as single pill

remaining, present in blood: 60%
SMILES: CCOC(=O)C1=C(COCCN)NC(C)=C(C(=O)OC)C1c1ccccc1Cl (stereo not shown) [Amlodipine, 3-ethyl-5-methyl-2-(2-aminoethoxymethyl)-4-(2-chlorophenyl)-1,4-dihydro-6-methyl-3,5-pyridinedicarboxylate]
